Experimental findings from PubChem BioAssay AID330 (DTP/NCI, 2004) are described below.

Several values for one entry are separate records, joined by “and”; a condition that tells them apart may be missing. Equal entries are not always repeated. Toxic doses and inconclusive results are not listed.

In this assay the test system is P388 leukemia ip, CD2F1 mice, survival T/C. Put plainly: NCI In Vivo Anticancer Drug Screen. Data for tumor model P388 Leukemia (intraperitoneal) in CD2F1 (CDF1) mice. The note with it: endpoint: median survival time, higher = longer survival. In outline: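 Mice carrying the transplanted tumor received test compound or vehicle. Survival was recorded in each group, and the value is the treated-group measurement divided by that of the vehicle-treated control group.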

[1] abbreviates: dose: 50.0 mg/kg/injection, schedule: Q01DX005 (ip), vehicle: saline with Tween-80.
Where [2] appears, read: dose: 100.0 mg/kg/injection, schedule: Q01DX005 (ip), vehicle: saline with Tween-80.
The mark [3] stands for this setting: dose: 200.0 mg/kg/injection, schedule: Q01DX005 (ip), vehicle: saline with Tween-80.
Setting [4] is: dose: 100.0 mg/kg/injection, schedule: Q01DX005 (ip), vehicle: Klucel (hydroxypropylcellulose) (HPC).
Setting [5] is: dose: 200.0 mg/kg/injection, schedule: Q01DX005 (ip), vehicle: Klucel (hydroxypropylcellulose) (HPC).
Setting [6] is: dose: 60.0 mg/kg/injection, schedule: Q01DX005 (ip), vehicle: saline with Tween-80.
[7] abbreviates: dose: 120.0 mg/kg/injection, schedule: Q01DX005 (ip), vehicle: saline with Tween-80.
Where [8] appears, read: dose: 50.0 mg/kg/injection, schedule: Q01DX005 (ip), vehicle: Klucel (hydroxypropylcellulose) (HPC).
Setting [9] is: dose: 100.0 mg/kg/injection, schedule: Q01DX001 (ip), vehicle: Klucel (hydroxypropylcellulose) (HPC).
The mark [10] stands for this setting: dose: 200.0 mg/kg/injection, schedule: Q01DX001 (ip), vehicle: Klucel (hydroxypropylcellulose) (HPC).
Setting [11] is: dose: 50.0 mg/kg/injection, schedule: Q01DX009 (ip), vehicle: Klucel (hydroxypropylcellulose) (HPC).
The mark [12] stands for this setting: dose: 100.0 mg/kg/injection, schedule: Q01DX009 (ip), vehicle: Klucel (hydroxypropylcellulose) (HPC).

Consider `COc1cccc2c1C(=O)c1c(O)c3c(c(O)c1C2=O)C[C@@](O)(C(=O)CO)C[C@@H]3OC1CC(N2CCOCC2C#N)C(O)C(C)O1` (stereo partly specified), for which the T/C (dose: 9.38 micrograms/kg/injection, schedule: Q04DX003 (ip), vehicle: saline with Tween-80) was 191 % of control and 198 % of control; the T/C (dose: 9.38 micrograms/kg/injection, schedule: Q04DX003 (ip), vehicle: water) was 105 % of control; the T/C (dose: 15.0 micrograms/kg/injection, schedule: Q04DX003 (iv), vehicle: saline + alcohol) is 180 % of control; the T/C (dose: 18.75 micrograms/kg/injection, schedule: Q04DX003 (ip), vehicle: saline with Tween-80) was 252 % of control and 260 % of control; the T/C (dose: 18.75 micrograms/kg/injection, schedule: Q04DX003 (ip), vehicle: water) was 107 % of control; the T/C (dose: 22.0 micrograms/kg/injection, schedule: Q04DX003 (iv), vehicle: saline + alcohol) was 180 % of control. For the same compound, the T/C (dose: 37.5 micrograms/kg/injection, schedule: Q04DX003 (ip), vehicle: saline with Tween-80) was 110 % of control; the T/C (dose: 75.0 micrograms/kg/injection, schedule: Q04DX003 (ip), vehicle: water) is 178 % of control and 196 % of control; the T/C (dose: 150.0 micrograms/kg/injection, schedule: Q04DX003 (ip), vehicle: water) was 111 % of control; the T/C (dose: 300.0 micrograms/kg/injection, schedule: Q04DX003 (ip), vehicle: water) is 89 % of control.
Consider `CN1C2=C(C(=O)CCC2)C(c2ccccc2)C2=C1CCCC2=O`, for which the T/C was 103 % of control under setting [1], 100 % of control under setting [2] and 98 % of control under setting [3].
Consider `Nc1nc(Nc2ccc(C3=NCCN3)cc2)nc(Nc2ccc(C3=NCCN3)cc2)n1`, for which the T/C reads like this: (dose: 6.25 mg/kg/injection, schedule: Q01DX009 (ip), vehicle: saline) 122 % of control; (dose: 6.25 mg/kg/injection, schedule: Q01DX009 (ip), vehicle: suspension in saline) 108 % of control.
Turning to `O=C(O)C1CCCN1C(=O)OCc1ccccc1` (stereo unspecified), the T/C under setting [4] is 87 % of control; the T/C under setting [5] is 89 % of control; the T/C (dose: 400.0 mg/kg/injection, schedule: Q01DX005 (ip), vehicle: Klucel (hydroxypropylcellulose) (HPC)) is 91 % of control.
With `CCSc1nnc(C2CCC(=O)N2Cc2ccccc2)o1` (stereo unspecified), the T/C is 94 % of control under setting [6]; 100 % of control under setting [7]; 100 % of control (dose: 240.0 mg/kg/injection, schedule: Q01DX005 (ip), vehicle: saline with Tween-80).
As to `COC(=O)/C=C1\C=CC(=O)OC1O` (stereo unspecified), the T/C by setting is: (dose: 6.25 mg/kg/injection, schedule: Q01DX005 (ip), vehicle: Klucel (hydroxypropylcellulose) (HPC)) 102 % of control; (dose: 12.5 mg/kg/injection, schedule: Q01DX005 (ip), vehicle: Klucel (hydroxypropylcellulose) (HPC)) 103 % of control; (dose: 25.0 mg/kg/injection, schedule: Q01DX005 (ip), vehicle: Klucel (hydroxypropylcellulose) (HPC)) 113 % of control.
As for `CC(C)CCCC(C)C1CCC2C3CCC4CC5(C)C(CC4(C)C3CCC12C)C(=O)C5(Cl)Cl` (stereo unspecified), the T/C runs as follows: under setting [1], 96 % of control; under setting [2], 100 % of control; under setting [3], 99 % of control.
For `C=C1C(=O)OC2/C=C(\C)CC/C=C(/C=O)C(OC(=O)C(C)C)C(O)C12` (stereo unspecified), where the note is “dose: 8.0 mg/kg/injection, schedule: Q01DX009 (ip), vehicle: saline + alcohol”, the T/C was 97 % of control.
Turning to `Cc1ccc(C=C(C#N)C#N)o1`, the T/C by setting is: under setting [6], 102 % of control; under setting [7], 105 % of control.
As to `COc1ccc2[nH]cc(CC(NC(C)=O)C(=O)O)c2c1` (stereo unspecified), the T/C is 98 % of control under setting [8], 104 % of control under setting [4] and 101 % of control under setting [5].
`Cc1nc2ccc(CCN3CCN(c4ccccc4Cl)CC3)cc2[nH]1`: the T/C reads like this: (dose: 50.0 mg/kg/injection, schedule: Q01DX001 (ip), vehicle: Klucel (hydroxypropylcellulose) (HPC)) 100 % of control; under setting [9], 108 % of control and 120 % of control; under setting [10], 116 % of control and 93 % of control.
Turning to `CC(=O)c1cc([N+](=O)[O-])c(N)s1`, the T/C is 111 % of control (dose: 12.5 mg/kg/injection, schedule: Q01DX009 (ip), vehicle: Klucel (hydroxypropylcellulose) (HPC)); 111 % of control (dose: 25.0 mg/kg/injection, schedule: Q01DX009 (ip), vehicle: Klucel (hydroxypropylcellulose) (HPC)); 95 % of control under setting [11]; 107 % of control under setting [12].
For the compound `CC(=O)N/N=C1/C=C2C/C(=N\NC(C)=O)C=C2C1`, the T/C runs as follows: under setting [1], 99 % of control; under setting [2], 95 % of control; under setting [3], 90 % of control.
Regarding `CC(C)(C)c1cc(C(C)(C)c2ccccc2)cc(Cc2cc(C(C)(C)c3ccccc3)cc(C(C)(C)C)c2O)c1O`, the T/C is 92 % of control (dose: 50.0 mg/kg/injection, schedule: Q01DX009 (ip), vehicle: saline with Tween-80); 94 % of control (dose: 100.0 mg/kg/injection, schedule: Q01DX009 (ip), vehicle: saline with Tween-80); 93 % of control (dose: 200.0 mg/kg/injection, schedule: Q01DX009 (ip), vehicle: saline with Tween-80); 89 % of control (dose: 400.0 mg/kg/injection, schedule: Q01DX009 (ip), vehicle: saline with Tween-80).
For the compound `CCOC(=O)C1=CNc2ccccc2N=C1N`, the T/C is 112 % of control (dose: 6.25 mg/kg/injection, schedule: Q01DX005 (ip), vehicle: saline with Tween-80); 115 % of control (dose: 12.5 mg/kg/injection, schedule: Q01DX005 (ip), vehicle: saline with Tween-80); 113 % of control (dose: 25.0 mg/kg/injection, schedule: Q01DX005 (ip), vehicle: saline with Tween-80).
In the case of `CCCCN(CCCC)CC(O)c1ccc(Br)c2ccccc12` (stereo unspecified), the T/C is 105 % of control under setting [1], 102 % of control under setting [2] and 104 % of control under setting [3].
Take `O=C1OC(=O)C23Cc4ccccc4CC12CC1Cc2ccccc2CC1C3` (stereo unspecified): the T/C is, setting by setting: under setting [11], 100 % of control; under setting [12], 88 % of control; (dose: 200.0 mg/kg/injection, schedule: Q01DX009 (ip), vehicle: Klucel (hydroxypropylcellulose) (HPC)) 94 % of control.
Regarding `O=Cc1cc(/C=N/Nc2ccc([N+](=O)[O-])cc2[N+](=O)[O-])nc2[nH]c(=O)ccc12`, the T/C by setting is: (dose: 100.0 mg/kg/injection, schedule: Q04DX002 (ip), vehicle: saline with Tween-80) 97 % of control; (dose: 200.0 mg/kg/injection, schedule: Q04DX002 (ip), vehicle: saline with Tween-80) 104 % of control; (dose: 400.0 mg/kg/injection, schedule: Q04DX002 (ip), vehicle: saline with Tween-80) 95 % of control.
Take `O=C(Cc1nc2ccccc2[nH]1)C(F)(F)F`: the T/C by setting is: under setting [9], 104 % of control; under setting [10], 94 % of control; (dose: 400.0 mg/kg/injection, schedule: Q01DX001 (ip), vehicle: Klucel (hydroxypropylcellulose) (HPC)) 101 % of control.
Regarding `CCN(CC)c1ccc2cc(S(=O)(=O)c3ccccc3)c(=O)oc2c1`, the T/C is 91 % of control under setting [6] and 86 % of control under setting [7].
In the case of `COc1c2c(cc3c1C(O)=CC(=O)C3=O)OCO2`, the T/C runs as follows: under setting [8], 104 % of control; under setting [4], 100 % of control; under setting [5], 107 % of control.
Consider `CCC1=C[C@H]2CN(CCc3c([nH]c4cc(Br)ccc34)[C@@](C(=O)OC)(c3cc4c(cc3OC)N(C)[C@H]3[C@@](O)(C(=O)OC)[C@H](OC(C)=O)[C@]5(CC)C=CCN6CC[C@]43[C@@H]65)C2)C1`, for which the T/C (dose: 1.0 mg/kg/injection, schedule: Q01DX001 (ip), vehicle: water) was 113 % of control; the T/C (dose: 2.0 mg/kg/injection, schedule: Q01DX001 (ip), vehicle: water) is 115 % of control; the T/C (dose: 3.9 mg/kg/injection, schedule: Q01DX001 (ip), vehicle: water) was 118 % of control; the T/C (dose: 4.0 mg/kg/injection, schedule: Q01DX001 (ip), vehicle: water) was 122 % of control; the T/C (dose: 6.5 mg/kg/injection, schedule: Q01DX001 (ip), vehicle: water) was 119 % of control; the T/C (dose: 16.0 mg/kg/injection, schedule: Q01DX001 (ip), vehicle: water) was 153 % of control. Moreover, the T/C was 169 % of control (dose: 18.0 mg/kg/injection, schedule: Q01DX001 (ip), vehicle: water); 173 % of control (dose: 30.0 mg/kg/injection, schedule: Q01DX001 (ip), vehicle: water); 185 % of control (dose: 32.0 mg/kg/injection, schedule: Q01DX001 (ip), vehicle: water).
